Laboratory results taken from patent publication US9233983B2, “Substituted hetero-bicyclic compounds, compositions and medicinal applications thereof” (ADVINUS THERAPEUTICS LIMITED, priority 2012, dated 2016).
Like-named read-outs stand apart in the source and are kept apart here.

Assays:
[1] = target: human Bruton's Tyrosine Kinase (Btk) (Homo sapiens (Human), UniProt Q06187); assay: Recombinant Human Bruton's Tyrosine Kinase (Btk) Inhibition Assay (HTRF KinEASE-TK); assay type: biochemical; details: 20 ng/ml rhBtk, 77 μM ATP (KM), 1 μM TK-Biotin substrate, 90 min; read-out: hBTK IC50
human Bruton's Tyrosine Kinase (Btk), sequence (Q06187 whole entry): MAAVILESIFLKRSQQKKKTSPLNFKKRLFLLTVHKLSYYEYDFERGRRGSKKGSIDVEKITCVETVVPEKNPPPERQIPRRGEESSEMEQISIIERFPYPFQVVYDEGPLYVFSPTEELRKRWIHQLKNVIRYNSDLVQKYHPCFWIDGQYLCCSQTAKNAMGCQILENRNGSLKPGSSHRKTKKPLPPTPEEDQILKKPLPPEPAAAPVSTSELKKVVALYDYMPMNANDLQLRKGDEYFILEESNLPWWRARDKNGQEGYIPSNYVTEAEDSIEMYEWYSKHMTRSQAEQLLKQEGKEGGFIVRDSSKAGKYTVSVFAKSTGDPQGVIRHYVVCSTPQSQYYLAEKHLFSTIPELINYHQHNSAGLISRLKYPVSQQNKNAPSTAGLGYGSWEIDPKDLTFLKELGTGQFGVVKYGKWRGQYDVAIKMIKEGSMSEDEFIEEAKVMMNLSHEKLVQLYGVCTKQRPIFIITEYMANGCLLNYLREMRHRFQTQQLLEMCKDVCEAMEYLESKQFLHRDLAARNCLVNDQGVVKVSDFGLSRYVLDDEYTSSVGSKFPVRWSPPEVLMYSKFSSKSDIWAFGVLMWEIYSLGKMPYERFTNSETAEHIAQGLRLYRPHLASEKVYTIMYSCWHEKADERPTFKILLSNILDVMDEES

mouse splenocytes = assay: Inhibition of B Cell Activation as Measured by CD69 Expression in Mouse Splenocytes; assay type: cell-based; details: Splenocyte
Outline: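 Total mouse splenocytes pre-incubated with compounds (half-log dilutions; DMSO 200× stocks from 2 mM) 30 min at 37 °C, then stimulated with 3 ug/mL anti-mouse IgM for 18-20 hrs. CD69+ cells within CD19+ B cells quantified by flow cytometry; IC50 from variable-slope sigmoid dose-response fit.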

[2] = C57/BL6 splenocytes, 3 ug/mL goat anti-mouse IgM, 18-20 hrs, CD69+ve cells within CD19, read-out: Mouse spleenocyte IC50

SMILES | IC50 [1] [nM] | IC50 (mouse splenocytes; [2]) [nM] | IC50 (mouse splenocytes; Mus musculus, read-out: Mouse spleenocyte IC50 (nM)) [nM]
CC1(O)CCN(C(=O)c2ccc(-c3cc4c(-c5cccc(N6CCOc7cc(C8CC8)ccc7C6=O)c5CO)ccnc4[nH]3)nc2)CC1 [Example L-1, 8-cyclopropyl-4-[2-(hydroxymethyl)-3-[2-[5-(4-hydroxy-4-methyl-piperidine-1-carbonyl)-2-pyridyl]-1H-pyrrolo[2,3-b]pyridin-4-yl]phenyl]-2,3-dihydro-1,4-benzoxazepin-5-one] | 8 | 67 | 
CC1(O)CCN(C(=O)c2ccc(-c3cc4c(-c5cccc(N6CCOc7cc(C8CC8)ccc7C6=O)c5CO)ccnc4[nH]3)cc2)CC1 [Example L-2, 8-cyclopropyl-4-[2-(hydroxymethyl)-3-[2-[4-(4-hydroxy-4-methyl-piperidine-1-carbonyl)phenyl]-1H-pyrrolo[2,3-b]pyridin-4-yl]phenyl]-2,3-dihydro-1,4-benzoxazepin-5-one] | 9 | 87 | 
CC1(O)CCN(C(=O)c2ccc(-c3cc4c(-c5cccc(N6CCOc7cc(C8CC8)cc(F)c7C6=O)c5CO)ccnc4[nH]3)nc2)CC1 [Example L-3, 8-cyclopropyl-6-fluoro-4-[2-(hydroxymethyl)-3-[2-[5-(4-hydroxy-4-methyl-piperidine-1-carbonyl)-2-pyridyl]-1H-pyrrolo[2,3-b]pyridin-4-yl]phenyl]-2,3-dihydro-1,4-benzoxazepin-5-one] | 8 | 21 | 
Cc1c(-c2nc(N)nc3[nH]c(-c4ccc(CN5CCN(C)CC5)cc4)cc23)cccc1N1CCOc2cc(C3CC3)ccc2C1=O [Example N-1, 4-[3-[2-amino-6-[4-[(4-methylpiperazin-1-yl)methyl]phenyl]-7H-pyrrolo[2,3-d]pyrimidin-4-yl]-2-methyl-phenyl]-8-cyclopropyl-2,3-dihydro-1,4-benzoxazepin-5-one] | 33 | 61 | 
Cc1c(-c2nc(N)nc3[nH]c(-c4ccc(C(=O)N5CCOCC5)cc4)cc23)cccc1N1CCOc2cc(C3CC3)ccc2C1=O [Example O-1, 4-[3-[2-amino-6-[4-(morpholine-4-carbonyl)phenyl]-7H-pyrrolo[2,3-d]pyrimidin-4-yl]-2-methyl-phenyl]-8-cyclopropyl-2,3-dihydro-1,4-benzoxazepin-5-one] | 55 | 171 | 
CN(C)C(=O)N1CC=C(c2cc3c(-c4cccc(N5CCOc6cc(C7CC7)ccc6C5=O)c4CO)ccnc3[nH]2)CC1 [Example P-5, 4-[4-[3-(8-cyclopropyl-5-oxo-2,3-dihydro-1,4-benzoxazepin-4-yl)-2-(hydroxymethyl)phenyl]-1H-pyrrolo[2,3-b]pyridin-2-yl]-N,N-dimethyl-3,6-dihydro-2H-pyridine-1-carboxamide] | 2 | 14.6 | 
CC(C)N1CC(n2cnc(-c3cc4c(-c5cccc(N6CCOc7cc(C8CC8)ccc7C6=O)c5CO)ccnc4[nH]3)c2)C1 [Example P-9, 8-cyclopropyl-4-[2-(hydroxymethyl)-3-[2-[1-(1-isopropylazetidin-3-yl)imidazol-4-yl]-1H-pyrrolo[2,3-b]pyridin-4-yl]phenyl]-2,3-dihydro-1,4-benzoxazepin-5-one] | 7 | 104 | 
CN(C)C(=O)N1CC=C(c2cc3c(-c4cccc(N5CCOc6cc(C(C)(C)O)ccc6C5=O)c4CO)ccnc3[nH]2)CC1 [Example P-10, 4-[4-[2-(hydroxymethyl)-3-[8-(1-hydroxy-1-methyl-ethyl)-5-oxo-2,3-dihydro-1,4-benzoxazepin-4-yl]phenyl]-1H-pyrrolo[2,3-b]pyridin-2-yl]-N,N-dimethyl-3,6-dihydro-2H-pyridine-1-carboxamide] | 6 | 94 | 
CN(C)C(=O)N1CC=C(c2cc3c(-c4cccc(N5CCOc6cc(C7CC7)cc(F)c6C5=O)c4CO)ccnc3[nH]2)CC1 [Example P-14, 4-[4-[3-(8-cyclopropyl-6-fluoro-5-oxo-2,3-dihydro-1,4-benzoxazepin-4-yl)-2-(hydroxymethyl)phenyl]-1H-pyrrolo[2,3-b]pyridin-2-yl]-N,N-dimethyl-3,6-dihydro-2H-pyridine-1-carboxamide] | 1 | 5.8 | 
CC1(O)CN(C(=O)N2CC=C(c3cc4c(-c5cccc(N6CCOc7cc(C8CC8)cc(F)c7C6=O)c5CO)ccnc4[nH]3)CC2)C1 [Example P-15, 8-cyclopropyl-6-fluoro-4-[2-(hydroxymethyl)-3-[2-[1-(3-hydroxy-3-methyl-azetidine-1-carbonyl)-3,6-dihydro-2H-pyridin-4-yl]-1H-pyrrolo[2,3-b]pyridin-4-yl]phenyl]-2,3-dihydro-1,4-benzoxazepin-5-one] | 1 | 14.7 | 
O=C(N1CC=C(c2cc3c(-c4cccc(N5CCOc6cc(C7CC7)cc(F)c6C5=O)c4CO)ccnc3[nH]2)CC1)N1CCOCC1 [Example P-18, 8-cyclopropyl-6-fluoro-4-[2-(hydroxymethyl)-3-[2-[1-(morpholine-4-carbonyl)-3,6-dihydro-2H-pyridin-4-yl]-1H-pyrrolo[2,3-b]pyridin-4-yl]phenyl]-2,3-dihydro-1,4-benzoxazepin-5-one] | 1.7 | 5.4 | 
CCN(CC)C(=O)N1CC=C(c2cc3c(-c4cccc(N5CCOc6cc(C7CC7)cc(F)c6C5=O)c4CO)ccnc3[nH]2)CC1 [Example P-19, 4-[4-[3-(8-cyclopropyl-6-fluoro-5-oxo-2,3-dihydro-1,4-benzoxazepin-4-yl)-2-(hydroxymethyl)phenyl]-1H-pyrrolo[2,3-b]pyridin-2-yl]-N,N-diethyl-3,6-dihydro-2H-pyridine-1-carboxamide] | 14.6 | 20 | 
O=C1c2c(F)cc(C3CC3)cc2OCCN1c1cccc(-c2ccnc3[nH]c(C4=CCN(C5CCOC5)CC4)cc23)c1CO (stereo not drawn) [Example P-21, 8-cyclopropyl-6-fluoro-4-[2-(hydroxymethyl)-3-[2-(1-tetrahydrofuran-3-yl-3,6-dihydro-2H-pyridin-4-yl)-1H-pyrrolo[2,3-b]pyridin-4-yl]phenyl]-2,3-dihydro-1,4-benzoxazepin-5-one] | 4 | 59 | 
O=C(CN1CC=C(c2cc3c(-c4cccc(N5CCOc6cc(C7CC7)cc(F)c6C5=O)c4CO)ccnc3[nH]2)CC1)N1CCC1 [Example P-22, 4-[3-[2-[1-[2-(azetidin-1-yl)-2-oxo-ethyl]-3,6-dihydro-2H-pyridin-4-yl]-1H-pyrrolo[2,3-b]pyridin-4-yl]-2-(hydroxymethyl)phenyl]-8-cyclopropyl-6-fluoro-2,3-dihydro-1,4-benzoxazepin-5-one] | 1.2 | 57 | 
CC(C)(O)CN1CC=C(c2cc3c(-c4cccc(N5CCOc6cc(C7CC7)cc(F)c6C5=O)c4CO)ccnc3[nH]2)CC1 [Example P-23, 8-cyclopropyl-6-fluoro-4-[2-(hydroxymethyl)-3-[2-[1-(2-hydroxy-2-methyl-propyl)-3,6-dihydro-2H-pyridin-4-yl]-1H-pyrrolo[2,3-b]pyridin-4-yl]phenyl]-2,3-dihydro-1,4-benzoxazepin-5-one] | 1.4 | 75 | 
CC(=O)N1CC=C(c2cc3c(-c4cccc(N5CCOc6cc(C7CC7)cc(F)c6C5=O)c4CO)ccnc3[nH]2)CC1 [Example P-24, 4-[3-[2-(1-acetyl-3,6-dihydro-2H-pyridin-4-yl)-1H-pyrrolo[2,3-b]pyridin-4-yl]-2-(hydroxymethyl)phenyl]-8-cyclopropyl-6-fluoro-2,3-dihydro-1,4-benzoxazepin-5-one] | 3.6 | 11 | 
O=C1c2c(F)cc(C3CC3)cc2OCCN1c1cccc(-c2ccnc3[nH]c(C4=CCN(C5CCOCC5)CC4)cc23)c1CO [Example P-26, 8-cyclopropyl-6-fluoro-4-[2-(hydroxymethyl)-3-[2-(1-tetrahydropyran-4-yl-3,6-dihydro-2H-pyridin-4-yl)-1H-pyrrolo[2,3-b]pyridin-4-yl]phenyl]-2,3-dihydro-1,4-benzoxazepin-5-one] | 3.4 | 162 | 
N#CCC(=O)N1CC=C(c2cc3c(-c4cccc(N5CCOc6cc(C7CC7)cc(F)c6C5=O)c4CO)ccnc3[nH]2)CC1 [Example P-27, 3-[4-[4-[3-(8-cyclopropyl-6-fluoro-5-oxo-2,3-dihydro-1,4-benzoxazepin-4-yl)-2-(hydroxymethyl)phenyl]-1H-pyrrolo[2,3-b]pyridin-2-yl]-3,6-dihydro-2H-pyridin-1-yl]-3-oxo-propanenitrile] | 1.2 | 50 | 
O=C(CN1CCC1)N1CC=C(c2cc3c(-c4cccc(N5CCOc6cc(C7CC7)cc(F)c6C5=O)c4CO)ccnc3[nH]2)CC1 [Example P-28, 4-[3-[2-[1-[2-(azetidin-1-yl)acetyl]-3,6-dihydro-2H-pyridin-4-yl]-1H-pyrrolo[2,3-b]pyridin-4-yl]-2-(hydroxymethyl)phenyl]-8-cyclopropyl-6-fluoro-2,3-dihydro-1,4-benzoxazepin-5-one] | 3.1 |  | 63
CC(O)C(=O)N1CC=C(c2cc3c(-c4cccc(N5CCOc6cc(C7CC7)cc(F)c6C5=O)c4CO)ccnc3[nH]2)CC1 (stereo not drawn) [Example P-29, 8-cyclopropyl-6-fluoro-4-[2-(hydroxymethyl)-3-[2-[1-(2-hydroxypropanoyl)-3,6-dihydro-2H-pyridin-4-yl]-1H-pyrrolo[2,3-b]pyridin-4-yl]phenyl]-2,3-dihydro-1,4-benzoxazepin-5-one] | 1.3 | 8 | 
O=C(CO)N1CC=C(c2cc3c(-c4cccc(N5CCOc6cc(C7CC7)cc(F)c6C5=O)c4CO)ccnc3[nH]2)CC1 [Example P-30, 8-cyclopropyl-6-fluoro-4-[3-[2-[1-(2-hydroxyacetyl)-3,6-dihydro-2H-pyridin-4-yl]-1H-pyrrolo[2,3-b]pyridin-4-yl]-2-(hydroxymethyl)phenyl]-2,3-dihydro-1,4-benzoxazepin-5-one] | 1 | 11 | 
